Assay results reported in ChEMBL document CHEMBL1201862, “PubChem BioAssay data set” (2004).
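How tested: cells in 96-well plates exposed to compound for 48 hours at five concentrations. The concentration for 50% growth inhibition is given as GI50.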 The source made the active and inactive calls. Cut-off read from the data, not from the text of the source: active = GI50 up to about 1.1 µM and inactive = higher.

Key:
Assay in all cases: NCI-60 cell line screen, 48 h
786-0 = tested on: 786-0
BT-549 = tested on: BT-549
MDA-N = tested on: MDA-N
NCI/ADR-RES = tested on: NCI/ADR-RES
HOP-18 = tested on: HOP-18
SNB-78 = tested on: SNB-78
T47D = tested on: T47D
LXFL 529 = tested on: LXFL 529
RXF 631 = tested on: RXF 631

**Q.** Which results are given for CC(C)CNCCc1ccccn1?
**A.** GI50 (786-0): > 100 µM (inactive); GI50 (BT-549): > 100 µM (inactive); GI50 (MDA-N): > 100 µM (inactive); GI50 (NCI/ADR-RES): > 100 µM (inactive)

**Q.** Which results are given for Cc1c2cnccc2c(C)c2c1c1ccccc1n2CCCCCCNCc1ccccc1?
**A.** GI50 (HOP-18): 0.547 µM (active); GI50 (NCI/ADR-RES): 0.74 µM (active); GI50 (SNB-78): 1.96 µM (inactive)

**Q.** How did the GI50 (BT-549) turn out when Cc1cnc(/C=N\NC(N)=S)c2cccc(N)c12 was run?
**A.** 0.536 µM (active)

**Q.** What about the GI50 (MDA-N) of the same compound?
**A.** 0.767 µM (active)

**Q.** And the GI50 (NCI/ADR-RES)?
**A.** 1.84 µM (inactive)

**Q.** And the GI50 (T47D)?
**A.** 0.497 µM (active)

**Q.** For O=C1C(Cl)N(c2ccccc2)C1c1c[nH]c2ccccc12 (centres undefined), which GI50 (LXFL 529) is on record?
**A.** > 100 µM (inactive)

**Q.** For c1ccc2cc3n[se]nc3cc2c1, which GI50 (HOP-18) is on record?
**A.** < 0.01 µM (active)

**Q.** What about the GI50 (LXFL 529) of the same compound?
**A.** > 100 µM (inactive)

**Q.** And the GI50 (RXF 631)?
**A.** 10.4 µM (inactive)

**Q.** What about the GI50 (SNB-78) of the same compound?
**A.** > 100 µM (inactive)

**Q.** Which GI50 (786-0) does the source give for O=c1[nH]c2c(c3ccccc13)CCc1ccccc1-2 here?
**A.** > 100 µM (inactive)

**Q.** What about the GI50 (LXFL 529) of the same compound?
**A.** > 100 µM (inactive)

**Q.** And the GI50 (SNB-78)?
**A.** > 100 µM (inactive)

**Q.** With COC(OC)C1OC(CO)C(n2cc(F)c(=O)[nH]c2=O)C1O (centres undefined) as the compound, how does the GI50 (BT-549) read?
**A.** > 100 µM (inactive)

**Q.** What about the GI50 (MDA-N) of the same compound?
**A.** > 100 µM (inactive)

**Q.** And the GI50 (NCI/ADR-RES)?
**A.** > 100 µM (inactive)

**Q.** And the GI50 (T47D)?
**A.** 25.4 µM (inactive)

**Q.** For COc1ccc2c(c1)CC1Cc3ccccc3CCN1C2 (centres undefined), which GI50 (BT-549) is on record?
**A.** > 100 µM (inactive)

**Q.** What about the GI50 (MDA-N) of the same compound?
**A.** 47.9 µM (inactive)

**Q.** And the GI50 (NCI/ADR-RES)?
**A.** 52 µM (inactive)

**Q.** And the GI50 (T47D)?
**A.** 35.2 µM (inactive)

**Q.** COc1nc2ccc(CNc3ccc(C(=O)NC(CCC(=O)O)C(=O)O)cc3)cc2nc1OC (centres undefined) was tested. Which GI50 (BT-549) did it give?
**A.** > 100 µM (inactive)

**Q.** What about the GI50 (MDA-N) of the same compound?
**A.** > 100 µM (inactive)

**Q.** What about the GI50 (NCI/ADR-RES) of the same compound?
**A.** > 100 µM (inactive)

**Q.** And the GI50 (T47D)?
**A.** > 100 µM (inactive)

**Q.** Which GI50 (HOP-18) does the source give for C=C(C(=O)C(=O)Oc1ccc(Cl)cc1)C(=O)c1ccc(C)cc1 here?
**A.** > 100 µM (inactive)

**Q.** And the GI50 (LXFL 529)?
**A.** 27.9 µM (inactive)

**Q.** What about the GI50 (RXF 631) of the same compound?
**A.** 46.2 µM (inactive)

**Q.** And the GI50 (SNB-78)?
**A.** 65 µM (inactive)

**Q.** How did the GI50 (HOP-18) turn out when C/C(=C1/N=C(c2cc([N+](=O)[O-])ccc2Cl)N(c2ccc(Br)cc2)C1=O)c1cc2ccccc2oc1=O was run?
**A.** > 100 µM (inactive)

**Q.** What about the GI50 (LXFL 529) of the same compound?
**A.** 6.78 µM (inactive)

**Q.** And the GI50 (SNB-78)?
**A.** 31.6 µM (inactive)

**Q.** CC(C)OP(=O)(OC(C)C)/C(I)=N/Nc1ccc([N+](=O)[O-])cc1 was tested. Which GI50 (LXFL 529) did it give?
**A.** > 100 µM (inactive)

**Q.** What about the GI50 (SNB-78) of the same compound?
**A.** > 100 µM (inactive)

**Q.** O=C(O)c1cc2sc(C(=O)O)cc2s1 was tested. Which GI50 (LXFL 529) did it give?
**A.** > 100 µM (inactive)

**Q.** And the GI50 (SNB-78)?
**A.** > 100 µM (inactive)

**Q.** Which results are given for O=c1oc2ccccc2n1P(=O)(n1c(=O)oc2ccccc21)n1c(=O)oc2ccccc21?
**A.** GI50 (LXFL 529): > 100 µM (inactive); GI50 (RXF 631): > 100 µM (inactive); GI50 (SNB-78): > 100 µM (inactive)

**Q.** CC[C@](C)(O)C(=O)O[C@H]1C(=O)O[C@@H]2C[C@H]3C(C)=C[C@H](O)[C@@H](O)[C@]3(C)[C@H]3[C@@]4(O)OC[C@]32[C@@H]1[C@@H](C)[C@H]4O was tested. Which GI50 (HOP-18) did it give?
**A.** 59.7 µM (inactive)

**Q.** What about the GI50 (NCI/ADR-RES) of the same compound?
**A.** > 205 µM (inactive)

**Q.** And the GI50 (SNB-78)?
**A.** 29.2 µM (inactive)

**Q.** For CC(=O)Nc1ccc(OCC(O)CO)cc1 (centres undefined), which GI50 (786-0) is on record?
**A.** 25.1 µM (inactive)

**Q.** What about the GI50 (HOP-18) of the same compound?
**A.** > 100 µM (inactive)

**Q.** What about the GI50 (LXFL 529) of the same compound?
**A.** 52.8 µM (inactive)

**Q.** And the GI50 (SNB-78)?
**A.** > 100 µM (inactive)

**Q.** CC(=O)OCC1OC(n2c(-c3ccc(C)cc3)cc(-c3ccco3)c(C#N)c2=S)C(OC(C)=O)C(OC(C)=O)C1OC(C)=O (centres undefined) was tested. Which GI50 (BT-549) did it give?
**A.** 38.7 µM (inactive)

**Q.** What about the GI50 (MDA-N) of the same compound?
**A.** > 100 µM (inactive)

**Q.** What about the GI50 (NCI/ADR-RES) of the same compound?
**A.** 84.3 µM (inactive)

**Q.** And the GI50 (T47D)?
**A.** 20.6 µM (inactive)

**Q.** Which results are given for O=C(CC12C3C4C1C1C2C3C41CC(=O)NO)NO (centres undefined)?
**A.** GI50 (786-0): 40.7 µM (inactive); GI50 (LXFL 529): 47.6 µM (inactive); GI50 (RXF 631): 27.4 µM (inactive); GI50 (SNB-78): 44.3 µM (inactive)

**Q.** How did the GI50 (786-0) turn out when COc1ccc(C(=O)C(C(=O)CCC(=O)Nc2ccc(Cl)c(Cl)c2)c2ccc(OC)cc2)cc1 (centres undefined) was run?
**A.** > 100 µM (inactive)

**Q.** What about the GI50 (HOP-18) of the same compound?
**A.** > 100 µM (inactive)

**Q.** What about the GI50 (LXFL 529) of the same compound?
**A.** > 100 µM (inactive)

**Q.** What about the GI50 (RXF 631) of the same compound?
**A.** > 100 µM (inactive)

**Q.** And the GI50 (SNB-78)?
**A.** > 100 µM (inactive)

**Q.** How did the GI50 (LXFL 529) turn out when O=C1OC2(OC2c2ccc(Cl)cc2)c2ccccc21 (centres undefined) was run?
**A.** 22.7 µM (inactive)

**Q.** What does the source list for C=CCP(=O)(CC=C)C(Cl)Cl?
**A.** GI50 (MDA-N): > 100 µM (inactive); GI50 (NCI/ADR-RES): > 100 µM (inactive); GI50 (T47D): > 100 µM (inactive)

**Q.** O=[N+]([O-])C(=C/c1ccccc1)/C(=C\c1ccccc1)[N+](=O)[O-] was tested. Which GI50 (BT-549) did it give?
**A.** 17.6 µM (inactive)

**Q.** What about the GI50 (MDA-N) of the same compound?
**A.** 17.1 µM (inactive)

**Q.** And the GI50 (NCI/ADR-RES)?
**A.** 18.7 µM (inactive)

**Q.** What about the GI50 (T47D) of the same compound?
**A.** 23.8 µM (inactive)

**Q.** With COc1cc2c(cc1OC)-c1cc3ccccc3c(=O)n1CC2 as the compound, how does the GI50 (BT-549) read?
**A.** 29.2 µM (inactive)

**Q.** And the GI50 (MDA-N)?
**A.** 28.2 µM (inactive)

**Q.** And the GI50 (NCI/ADR-RES)?
**A.** 25.2 µM (inactive)

**Q.** What about the GI50 (T47D) of the same compound?
**A.** 21.8 µM (inactive)

**Q.** What does the source list for c1ccc(/N=C2\SC3=NCCN3\C2=N/c2ccccc2)cc1?
**A.** GI50 (BT-549): 15.2 µM (inactive); GI50 (MDA-N): 15.7 µM (inactive); GI50 (NCI/ADR-RES): 28 µM (inactive); GI50 (T47D): 9.12 µM (inactive)

**Q.** With Cc1ccc(S(N)(C(=O)Nc2cccc3ccccc23)[N+](=O)[O-])cc1 (centres undefined) as the compound, how does the GI50 (BT-549) read?
**A.** > 100 µM (inactive)

**Q.** And the GI50 (MDA-N)?
**A.** > 100 µM (inactive)

**Q.** What about the GI50 (NCI/ADR-RES) of the same compound?
**A.** > 100 µM (inactive)

**Q.** What about the GI50 (T47D) of the same compound?
**A.** 46.2 µM (inactive)

**Q.** Which results are given for COc1cc(Br)c(CC2C3=C(CCN2C(=O)C2CCC2)CC(=O)CC3)cc1O (centres undefined)?
**A.** GI50 (786-0): 26.5 µM (inactive); GI50 (MDA-N): 19.6 µM (inactive); GI50 (NCI/ADR-RES): 27.5 µM (inactive); GI50 (T47D): 26.2 µM (inactive)

**Q.** What does the source list for O=C(CCN(CCO)CCO)Nc1ccc2c(c1)C(=O)c1ccc(NC(=O)CCN(CCO)CCO)cc1C2=O?
**A.** GI50 (786-0): 4.62 µM (inactive); GI50 (HOP-18): 27 µM (inactive); GI50 (LXFL 529): 2.05 µM (inactive); GI50 (SNB-78): 6.62 µM (inactive)

**Q.** Which GI50 (HOP-18) does the source give for NC1(C(=O)O)CCCC1 [CYCLOLEUCINE] here?
**A.** > 625 µM (inactive)

**Q.** What about the GI50 (NCI/ADR-RES) of the same compound?
**A.** > 625 µM (inactive)

**Q.** And the GI50 (SNB-78)?
**A.** > 244 µM (inactive)

**Q.** With Nc1n[nH]c2nc3ccccc3nc12 [QUINOXALINE1] as the compound, how does the GI50 (BT-549) read?
**A.** 64.6 µM (inactive)

**Q.** And the GI50 (MDA-N)?
**A.** > 100 µM (inactive)

**Q.** And the GI50 (NCI/ADR-RES)?
**A.** > 100 µM (inactive)
